# Source: article PMC10539329, “NLRP6 potentiates PI3K/AKT signalling by promoting autophagic degradation of p85α to drive tumorigenesis” (Nature Communications, 2023)
# Peptide text beside a SMILES is read from it.
# T1: recombinant NLRP6 (Homo sapiens, UniProt P59044)
# T1 construct: DNA encoding full-length NLRP6 was codon optimized; His (N); MBP (N); made in house; host or cells: E. coli (DE3)
# T1 sequence (P59044 1-892): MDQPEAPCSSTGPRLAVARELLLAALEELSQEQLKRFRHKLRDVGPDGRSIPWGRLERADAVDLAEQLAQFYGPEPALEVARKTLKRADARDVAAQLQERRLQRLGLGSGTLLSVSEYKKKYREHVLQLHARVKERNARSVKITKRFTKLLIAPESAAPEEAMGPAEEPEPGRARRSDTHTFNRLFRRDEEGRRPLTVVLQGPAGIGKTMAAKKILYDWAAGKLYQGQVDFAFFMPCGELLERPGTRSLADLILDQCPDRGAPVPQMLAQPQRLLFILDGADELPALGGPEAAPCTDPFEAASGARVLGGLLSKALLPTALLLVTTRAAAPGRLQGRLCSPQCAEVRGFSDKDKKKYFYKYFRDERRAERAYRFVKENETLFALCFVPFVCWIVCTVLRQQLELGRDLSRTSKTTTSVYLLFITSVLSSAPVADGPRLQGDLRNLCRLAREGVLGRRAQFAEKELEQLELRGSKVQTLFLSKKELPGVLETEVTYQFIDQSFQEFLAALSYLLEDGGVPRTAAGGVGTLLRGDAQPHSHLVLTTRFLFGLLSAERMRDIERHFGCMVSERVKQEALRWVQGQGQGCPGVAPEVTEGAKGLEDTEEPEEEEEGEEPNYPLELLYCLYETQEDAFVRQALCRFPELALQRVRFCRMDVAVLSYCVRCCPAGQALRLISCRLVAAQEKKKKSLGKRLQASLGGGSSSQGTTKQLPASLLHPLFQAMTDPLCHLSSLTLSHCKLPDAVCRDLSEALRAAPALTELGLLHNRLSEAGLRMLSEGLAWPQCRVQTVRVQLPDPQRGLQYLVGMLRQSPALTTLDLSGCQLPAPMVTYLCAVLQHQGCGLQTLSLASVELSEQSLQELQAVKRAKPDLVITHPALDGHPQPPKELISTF
# How the values were obtained:
# p85α in LN229 cells = assay: NLRP6-induced p85α degradation with pathway inhibitors, immunoblot, LN229; assay type: cell-based, Human; conditions: LN229 cells transfected with Flag-NLRP6, immunoblot
# Procedure: (§1) For coimmunoprecipitation, cell lysate was collected and incubated with the indicated antibody at 4 °C overnight followed by incubation with Protein A/G beads (Pierce, IL, USA) at 4 °C for 2 h. The unbound proteins were washed away with lysis buffer. The precipitated proteins were separated from the beads. To detect protein expression in frozen tissues or cells, total protein was extracted using RIPA lysis buffer (Beyotime, Shanghai, China) supplemented with protease and phosphatase inhibitors (Beyotime, Shanghai, China). The protein concentration was determined using a BCA protein quantification kit (Beyotime, Shanghai, China) or BCA Protein Assay Kit (BEB, Nanjing, China). The proteins were separated by SDS–PAGE, transferred to polyvinylidene fluoride (PVDF) membranes (Bio–Rad, CA, USA), and incubated with the indicated antibodies. The bands were detected with the ECL Advanced Western blot Detection Kit (Thermo Fisher Scientific, MA, USA) or Super ECL Chemiluminescent Substrate Kit (BEB, Nanjing, China) on a ChemiDoc Touch System (Bio–Rad, CA, USA) or Tanon 4600 (Tanon, Shanghai, China). The band intensities were quantified using Image Lab software (Bio–Rad, CA, USA) or ImageJ software (National Institutes of Health, MD, USA).
# recombinant NLRP6 = molecular target: T1, recombinant NLRP6; assay: Biolayer interferometry (BLI) binding of peptides to recombinant NLRP6; conditions: Octet Red 96, biotin-NLRP6 on streptavidin biosensors, 30 °C, PBS with 0.01% Tween-20, global 1:1 fitting, printed in picture Fig. 6b, representative of three independent experiments
# Procedure: DNA encoding full-length NLRP6 was codon optimized and chemically synthesized by Genewiz (Soochow, China). The DNA sequence was subcloned into NdeI-XhoI sites of a pDB-His-MBP vector (kindly given by Pro. Chenggui Han, China Agricultural University, Beijing, China). Recombinant NLRP6 protein was expressed and purified following previous reports, with slight modifications. Briefly, the protein was expressed in E. coli (DE3) at 16 °C with 0.5 mM IPTG induction overnight. Then, the protein was purified by Ni affinity and gel filtration chromatography. The p85α WT and p85α mutant sequences were chemically synthesized and subcloned into BamHI-XhoI sites of a pGEX-6P-1 plasmid by GenScript (Nanjing, China). The E. coli (DE3) transformed with the plasmids were grown in LB medium at 37 °C. The culture medium was supplemented with 0.5 mM IPTG followed by incubation at 16 °C for 16–18 h. […] The protein extinction coefficient was calculated by ProtParam, and the protein concentration was determined by the ultraviolet spectrophotometry method.
# Eleven α-helical peptides were synthesized (Supplementary Data 7). […] The interaction between the peptides and NLRP6 was determined by BLI using an Octet Red 96 instrument (FortéBio, CA, USA). […] Responses (nanometre shift) were calculated using data that were double reference subtracted using reference wells and nonspecific binding of the biosensor to the analyte. […]
# AKT = conditions: cited from earlier work
# Procedure: To investigate whether NLRs could regulate PI3K/AKT pathway, the FOXO luciferase reporter assay was performed to detect the transcriptional activity of FOXO, which is one of the best characterized targets of PI3K/AKT pathway. Two independent oligonucleotides targeting each of 22 human NLRs were mixed and transfected into LN229 cells. The nontargeting oligonucleotides served as a negative control. The knockdown efficiency targeting each NLR was confirmed by qRT-PCR (Supplementary Fig. 1a). […] Thus, interrupting the interaction between NLRP6 and p85α appears to be an attractive strategy to inhibit tumour growth. α-Helices are the fundamental recognition elements in protein-protein interactions and may serve as ideal inhibitors of macromolecular interactions. According to the observations that the SR domain (amino acids 1–301) on p85α interacted with the NOD domain (amino acids 1 ...
# PI3K/AKT pathway [1] = assay: Immunoblot of PI3K/AKT pathway with Pep9 and SC-79; assay type: cell-based
# Procedure: as §1
# PI3K/AKT pathway [2] = assay: PI3K/AKT activation by NLRP6 overexpression with MK-2206; assay type: cell-based
# Procedure: as §1
# purified NLRP6 = assay: ELISA, binding of HRP-conjugated peptide to purified NLRP6; conditions: ELISA, 1 h
# Procedure: DNA encoding full-length NLRP6 was codon optimized and chemically synthesized by Genewiz (Soochow, China). The DNA sequence was subcloned into NdeI-XhoI sites of a pDB-His-MBP vector (kindly given by Pro. Chenggui Han, China Agricultural University, Beijing, China). Recombinant NLRP6 protein was expressed and purified following previous reports, with slight modifications. Briefly, the protein was expressed in E. coli (DE3) at 16 °C with 0.5 mM IPTG induction overnight. Then, the protein was purified by Ni affinity and gel filtration chromatography. The p85α WT and p85α mutant sequences were chemically synthesized and subcloned into BamHI-XhoI sites of a pGEX-6P-1 plasmid by GenScript (Nanjing, China). The E. coli (DE3) transformed with the plasmids were grown in LB medium at 37 °C. The culture medium was supplemented with 0.5 mM IPTG followed by incubation at 16 °C for 16–18 h. The proteins were purified by glutathione-affinity chromatography (Smart-Life Sciences, Changzhou, China) followed by gel filtration chromatography (Cytiva, MA, USA) using PBS. The protein extinction coefficient was calculated by ProtParam, and the protein concentration was determined by the ultraviolet spectrophotometry method.
# The 96-well plate was coated with bovine serum albumin (BSA) or purified NLRP6. HRP-conjugated PepC or HRP-conjugated Pep9 was incubated with BSA or NLRP6 for 1 h, and the unbound peptide was washed away. The HRP substrate was added, and the absorbance was detected at 450 nm. For the competitive ELISA, the 96-well plate was coated with purified p85α. The binding of NLRP6 to p85α competed with 10 μM PepC or 5 μM, 10 μM, 20 μM Pep9 for 1 h.
molecule,measurement,setting,value
Cl.N [NH4Cl],NLRP6-induced p85α degradation (in words),p85α in LN229 cells,attenuated NLRP6-induced p85α degradation
"CO/C1=C\C(C)=C\[C@@H](C)[C@@H](O)[C@@H](C)C/C(C)=C/C=C/[C@H](OC)[C@@H]([C@@H](C)[C@@H](O)[C@H](C)[C@@]2(O)C[C@@H](O)[C@H](C)[C@@H](C(C)C)O2)OC1=O [bafilomycin A1 (BafA1), bafilomycin A1]",NLRP6-induced p85α degradation (in words),p85α in LN229 cells,attenuated NLRP6-induced p85α degradation
CC(C)C[C@H](NC(=O)[C@H](CC(N)=O)NC(=O)[C@H](CCCCN)NC(=O)[C@H](CO)NC(=O)[C@H](CO)NC(=O)[C@@H](NC(=O)[C@H](CCC(N)=O)NC(=O)[C@H](CO)NC(=O)[C@H](CC(C)C)NC(=O)[C@H](CCCCN)NC(=O)[C@H](Cc1ccccc1)NC(=O)[C@H](Cc1ccccc1)NC(=O)[C@H](Cc1c[nH]cn1)NC(=O)[C@H](CCCCN)NC(=O)[C@H](CC(C)C)NC(=O)[C@H](CC(C)C)NC(=O)[C@H](Cc1ccc(O)cc1)NC(=O)[C@H](CCC(N)=O)NC(=O)[C@H](CC(C)C)NC(=O)[C@@H](NC(=O)[C@H](CC(C)C)NC(=O)[C@H](Cc1c[nH]c2ccccc12)NC(=O)[C@H](Cc1ccc(O)cc1)NC(=O)[C@H](CCC(N)=O)NC(=O)[C@H](Cc1c[nH]cn1)NC(=O)[C@@H]1CCCN1)[C@@H](C)O)[C@@H](C)O)C(=O)O [Pep9] (H-PHQYWLTLQYLLKHFFKLSQTSSKNL-OH),Kd,recombinant NLRP6,9 µM
CCOC(=O)C1=C(N)Oc2ccc(Cl)cc2C1C(C#N)C(=O)OCC (stereo not shown) [SC-79],AKT binding and activation (in words),AKT; cytosol,specifically binds to the PH domain of AKT and activates AKT in the cytosol
same,effect of SC-79 on Pep9 inhibition of PI3K/AKT pathway (in words),PI3K/AKT pathway [1],The inhibition of Pep9 on PI3K/AKT pathway was reversed when SC79 was added
"Cn1cnc(N)c2ncnc1-2 [3-methyladenine (3-MA), 3-methyladenine]",NLRP6-induced p85α degradation (in words),p85α in LN229 cells,attenuated NLRP6-induced p85α degradation
NC1(c2ccc(-c3nc4ccn5c(=O)[nH]nc5c4cc3-c3ccccc3)cc2)CCC1 [MK-2206],AKT inhibition (in words),AKT,highly potent and selective allosteric AKT inhibitor
same,PI3K/AKT activation by NLRP6 overexpression (in words),PI3K/AKT pathway [2],NLRP6 overexpression could not activate PI3K/AKT pathway anymore when MK-2206 was introduced
"CCN(CC)CCCC(C)Nc1ccnc2cc(Cl)ccc12 (stereo not shown) [chloroquine (CQ), chloroquine]",NLRP6-induced p85α degradation (in words),p85α in LN229 cells,attenuated NLRP6-induced p85α degradation
"HRP-conjugated Pep9: Horseradish peroxidase (HRP)-conjugated Pep9 (conjugate, left off: HRP, end not stated, kept) peptide: EADVEQQALTLPDLAEQFAPPDIAPPLLIKLVEAIEKKGLECSTLYRTQSSSNLAELRQLLDCDTPSVDLEMIDVHVLADAFKRYLLDLPNPVIPAAVYSEMISLAPEVQSSEEYIQLLKKLIRSPSIPHQYWLTLQYLLKHFFKLSQTSSKNLLNARVLSEIFSPMLFRFSAASSDNTENLIKVIEILISTEWNERQPAPALPPKPPKPTTVAN",binding of HRP-conjugated peptide to NLRP6 (in words),purified NLRP6,could bind to NLRP6
